The test system of data set [1] is hepatitis B virus-producing HepG2.2.15 cells. Put plainly: Antiviral test: reduction of HBV DNA in HepG2.2.15 cells (dot-blot hybridization). It is filed as cell-based. Conditions: HepG2.2.15, 96 h. On the procedure: The antiviral action of the compounds according to the invention was investigated by methods based on those described by M. A. Sells et al., Proc. Natl. Acad. Sci. 84, 1005-1009 (1987) and B. E. Korba et al., Antiviral Research 19, 55-70 (1992).
The antiviral tests were carried out in 96-well microtitre plates. The first vertical row of the plate received only growth medium and HepG2.2.15 cells. It served as virus control.
Stock solutions of the test compounds (50 mM) were initially dissolved in DMSO, and further dilutions were prepared in the HepG2.2.15 growth medium. The compounds according to the invention were usually pipetted in a test concentration of 100 μM (1st test concentration) in each case into the second vertical test row of the microtitre plate and subsequently diluted in twofold steps 2^10 times in growth medium+2% by weight fetal calf serum (volume 25 μl).
Each well of the microtitre plate then contained 225 μl of HepG2.2.15 cell suspension (5×10^4 cells/ml) in growth medium+2% by weight of fetal calf serum.
The test mixture was incubated at 37° C. and 5% CO2 (v/v) for 4 days.
The supernatant was then aspirated off and discarded, and the wells received 225 μl of freshly prepared growth medium. The compounds according to the invention were each added anew as 10-fold concentrated solution in a volume of 25 μl. The mixtures were incubated for a further 4 days.
The supernatants/cells were then harvested and sucked by means of a vacuum onto 96-well dot-blot chambers covered with a nylon membrane (in accordance with the manufacturer's information).
After the supernatants or cells had been transferred to the nylon membrane of the blot apparatus (see above), the supernatants of the HepG2.2.15 cells were denatured (1.5 M NaCl/0.5 N NaOH), neutralized (3M NaCl/0.5M Tris HCl, pH 7.5) and washed (2×SSC). The DNA was then baked onto the membrane by incubating the filters at 120° C. for 2-4 hours.
Detection of the viral DNA from the treated HepG2.2.15 cells on the nylon filters was easily carried out with non-radioactive, digoxigenin-labelled hepatitis B-specific DNA probes, each of which was labelled with digoxigenin, purified and employed for the hybridization in accordance with the manufacturer's information.
The prehybridization and hybridization took place in 5×SSC, 1× blocking reagent, 0.1% by weight N-lauroylsarcosine, 0.02% by weight SDS and 100 μg of herring sperm DNA. The prehybridization took place at 60° C. for 30 minutes, and the specific hybridization with 20 to 40 ng/ml of the digoxigenized, denatured HBV-specific DNA took place at 60° C. for 14 hours. The filters were then washed.
The immunological detection of the digoxigenin-labelled DNA took place in accordance with the manufacturer's information:
The filters were washed and prehybridized in a blocking reagent (in accordance with the manufacturer's information). Hybridization was then carried out with an anti-DIG antibody coupled to alkaline phosphatase for 30 minutes. After a washing step, the substrate of alkaline phosphatase, CSPD, was added, incubated with the filters for 5 minutes, then packed in plastic film and incubated at 37° C. for a further 15 minutes.
The chemiluminescence of the hepatitis B-specific DNA signals was visualized by exposing the filters to an X-ray film (incubation depending on signal strength: 10 minutes to 2 hours).
The half-maximum inhibitory concentration (IC-50, 50% inhibitory concentration) was determined as the concentration at which the hepatitis B-specific band was reduced by the compound according to the invention by 50% compared with an untreated sample.

The test system of another data set is HepG2.2.15 cells. In words: Cytotoxicity determination in HepG2.2.15 cells. It is filed as cell-based. The following applies: 50% cytotoxicity. From the text: Before harvesting the supernatants and/or cells to determine the antiviral effect, the HepG2.2.15 cells were examined under the light microscope or by means of biochemical detection methods (for example Alamar Blue stain or Trypan Blue stain) for cytotoxic changes.
Substance-induced cytotoxic or cytostatic changes in the HepG2.2.15 cells were detected, for example, under the light microscope as changes in cell morphology. Such substance-induced changes in the HepG2.2.15 cells compared with untreated cells were visible, for example, as cytolysis, vacuolation or altered cell morphology.
The tolerability of some of the compounds according to the invention was additionally tested on other host cells such as, for example, HeLa cells, primary human peripheral blood cells or transformed cell lines such as H-9 cells.
As a rule, the compounds according to the invention were tolerated up to concentrations of 10 μM (Tox. −50).

Molecules are shown by their SMILES.

In general, IC50 refers to the point on the concentration scale where inhibition reaches its midpoint. Low values mean greater potency, high ones weaker potency. Take `Cc1cc(NC(=O)c2c(C)noc2C)ccc1F` [Example 2, N-(4-Fluoro-3-methylphenyl)-3,5-dimethylisoxazole-4-carboxamide]: the IC50 in data set [1] was found to be 0.2 µM. Further, in the data set on HepG2.2.15 cells, the Tox-50 was >100 μM/l.
`CCc1onc(C)c1C(=O)Nc1ccc(F)c(Cl)c1` [Example 12] displayed an IC50 in data set [1] of 0.5 µM. Besides, in the data set on HepG2.2.15 cells, the Tox-50 is reported as >100 μM/l.
In turn, `Cc1cc(NC(=O)c2c(C)noc2C(F)(F)F)ccc1F` [Example 16] registered an IC50 in data set [1] of 0.75 µM. The Tox-50 with HepG2.2.15 cells is on record as >100 μM/l.
Compound `CCCc1onc(C)c1C(=O)Nc1cccc(C)c1` [Example 21] came in with a half-maximal inhibitory concentration (IC50) in data set [1] of 1 µM. Further, the Tox-50 with HepG2.2.15 cells is >100 μM/l.
The compound `Cc1cccc(NC(=S)c2c(C)noc2C)c1` [Example 29] came in with a 50% inhibitory concentration (IC50) in data set [1] of 4 µM. In the data set on HepG2.2.15 cells, the Tox-50 was >100 μM/l.
As to `Cc1oncc1C(=O)Nc1ccc(C(F)(F)F)cc1` [Leflunamide, N-(4-trifluoromethylphenyl)-5-methylisoxazole-4-carboxamide, reference compound], the IC50 in data set [1] was > 70 µM. For the same compound, the Tox-50 in the data set with HepG2.2.15 cells was 70 μM/l.

The values above are taken from patent publication US20030187028A1, “Medicament for viral diseases” (priority 2000, published 2003).
